In patent publication US20240139333A1, “2,6-DICHLOROPHENYL ESTER COMPOUNDS AND USE THEREOF” (Fusion Pharmaceuticals Inc., priority 2021, published 2024):

Columns and labels:
[1] = Competitive reactivity study between L-Lysine and HOPO nucleophile; conditions: L-Lysine 5 eq. / 1,2-HOPO 1 eq.
Procedure: (§1) General Experimental Protocol for Competitive Reactivity Study with L-Lysine and HOPO or HOA Nucleophiles
(§2) To a 4 mL scintillation vial containing Compound A (1 eq.) was added a stir bar followed by 70 μL of HPLC grade acetonitrile followed by a respective HOPO or HOA nucleophile (1 eq). In another 4 mL scintillation vial containing L-Lysine monohydrochloride (5 eq.) was added 130 μL HPLC grade water followed by diisopropylethylamine (5 eq.). The solutions were combined and allowed to stir at room temperature (22±2° C.) for 4 hours. Timed aliquots at time (T)=15, 30, 60, 120 and 240 minutes were taken and analyzed by HPLC-MS using elution method 1 (Table 7)

[2] = Competitive reactivity study between L-Lysine and HOA nucleophile; conditions: L-Lysine 5 eq. / N-Hydroxy-N-methyl benzamide 1 eq
Procedure: as §1, §2

pH stability study = format: physicochemical; conditions: 20° C.
Procedure: To a 4 mL scintillation vial containing Compound A-E (in respective experiments; 0.8 mg) was added 4 mL of either a pH 3, pH 5 pH 7 or pH 9 buffer to create a 0.2 mg/mL solution. 2 mL of this solution was added to a 2 mL HPLC vial and placed in the auto sampler of an HPLC-MS at 20° C. Timed aliquots at time (T)=15, 30, 60, 120, 240 and 480 minutes were taken and analyzed by HPLC-MS using elution method 1 (Table 3). […]
pH 3 Buffer: Citric acid/Na2HPO4 (79.45 mL 0.1 M-citric acid and 20.55 mL 0.2-Na2HPO4) pH 5 Buffer: Citric acid/Na2HPO4 (48.50 mL 0.1 M-citric acid and 51.50 mL 0.2-Na2HPO4) pH 7 Buffer: Citric acid/Na2HPO4 (17.65 mL 0.1 M-citric acid and 82.35 mL 0.2-Na2HPO4) pH 9 Buffer: Sodium Carbonate/Sodium Bicarbonate (10 mL 0.1 M-Na2CO3 and 90 mL 0.1-NaHCO3)

SMILES	% Remaining (pH stability study; pH 3 buffer, 15 min)	% Remaining (pH stability study; pH 3 buffer, 30 min)	% Remaining (pH stability study; pH 3 buffer, 60 min)	% Remaining (pH stability study; pH 3 buffer, 120 min)	% Remaining (pH stability study; pH 3 buffer, 240 min)	% Remaining (pH stability study; pH 3 buffer, 480 min)	% Remaining (pH stability study; pH 5 buffer, 15 min)	% Remaining (pH stability study; pH 5 buffer, 30 min)	% Remaining (pH stability study; pH 5 buffer, 60 min)	% Remaining (pH stability study; pH 5 buffer, 120 min)	% Remaining (pH stability study; pH 5 buffer, 240 min)	% Remaining (pH stability study; pH 5 buffer, 480 min)	% Remaining (pH stability study; pH 7 buffer, 15 min)	% Remaining (pH stability study; pH 7 buffer, 30 min)	% Remaining (pH stability study; pH 7 buffer, 60 min)	% Remaining (pH stability study; pH 7 buffer, 120 min)	% Remaining (pH stability study; pH 7 buffer, 240 min)	% Remaining (pH stability study; pH 7 buffer, 480 min)	% Remaining (pH stability study; pH 9 buffer, 15 min)	% Remaining (pH stability study; pH 9 buffer, 30 min)	other results
O=C(CCc1cccnc1)Oc1c(Cl)cccc1Cl [Compound A, 2,6-Dichlorophenyl-3-(pyridin-3-yl)propanoate]	100%	100%	100%	100%	100%	100%	100%	100%	100%	100%	100%	100%	100%	100%	100%	99.35%	98.75%	97.82%	98.15%	95.27%	% Compound A Remaining ([1]; 15 min): (88.33) %; % Compound A Remaining ([1]; 30 min): (74.52) %; % Compound A Remaining ([1]; 60 min): (28.29) %; % Compound A Remaining ([1]; 120 min): (2.01) %; % Compound A Remaining ([1]; 240 min): (0) %; % Compound A Remaining ([2]; 15 min): (65.77) %; % Compound A Remaining ([2]; 30 min): (14.83) %; % Compound A Remaining ([2]; 60 min): (1.63) %; % Compound A Remaining ([2]; 120 min): (0) %; % Remaining (pH stability study; pH 9 buffer, 60 min): 92.61%; % Remaining (pH stability study; pH 9 buffer, 120 min): 87.81%; % Remaining (pH stability study; pH 9 buffer, 240 min): 79.28%; % Remaining (pH stability study; pH 9 buffer, 480 min): 61.56%
O=C(CCc1cccnc1)Oc1c(F)c(F)cc(F)c1F [Compound C, 2,3,5,6-Tetrafluorophenyl-3-(pyridin-3-yl)propanoate]	98.19%	93.92%	89.61%	82.13%	68.98%	48.46%	96.06%	86.91%	79.07%	65.20%	45.26%	20.20%	94.61%	83.82%	73.25%	54.53%	27.99%	5.60%	7.60%	1.71%	% Remaining (pH stability study; pH 9 buffer, 60 min): 0.49%; % Remaining (pH stability study; pH 9 buffer, 120 min): 0%
